According to patent publication US20260231951A1, “COATED SEEDS AND METHODS TO IMPROVE CROPS” (MONTANA STATE UNIVERSITY, priority 2023, published 2026):

What was measured:
wheat [1] = experiment: Greenhouse tests to identify ideal DBDTP seed treatment concentrations for wheat (SPRET surfactant); format: in vivo
Procedure: (§1) All greenhouse experiments took place under a 16-hour photoperiod with temperatures set to 22° C. day and 18° C. night.
(§2) Two seed treatment methods were examined: 1) Seed treated with DBDTP applied using a non-ionic surfactant and 2) Seed treated with DBDTP added to commonly used pesticide seed treatments (Example 8). For this testing, DBDTP was used as the dithiophosphate source. Note that the seed treatment concentration and volume is not standard across plant species. Each species tolerates a different level of DBDTP and the volume used to treat each species is dependent on seed size. After adding treatment to seed, seed was rolled for 5 minutes. Seed was then exposed to air and allowed to dry completely prior to planting.
(§3) For this method, the non-ionic wetter/spreader surfactant used for all treatments was SPRET (Helena Holding Company). The lowest recommended SPRET concentration was selected from the product label (1.25 mL/L H2O).
Greenhouse tests to identify ideal DBDTP seed treatment concentrations: A 7% w/v solution was used for each DBDTP treatment to achieve an even coating of wheat seeds. For each DBDTP level, small amounts of DBDTP were dissolved in the SPRET solution according to Table 2 and seed was treated with a 7% w/v solution. Five seeds were sown in 6″ pots and averaged for a single rep. Each DBDTP treatment had three replications.

MT 457 green field pea = experiment: Field trial of DBDTP treated green field pea (with pesticide seed treatments); format: in vivo
Procedure: (§4) For this method, DBDTP amounts were combined with commonly used seed treatment pesticides using the recommended, crop-specific amount on the product label. The pesticides that were used include Obvius Plus Specimen fungicide seed treatment (BASF Corporation), Dyna-Shield imidacloprid 5 (Loveland Products), and Cruiser Maxx Vibrance Cereals (Syngenta). Pesticide amounts correspond to species-specific recommended amounts on the product label. After treatments were added to seeds, seed was rolled 5 minutes and allowed to dry completely.
Seed treatment levels consisted of 0, 52, 103, 207, and 413 mM DBDTP (Table 6). Seed was treated with a 1.7% w/v solution that included DBDTP and seed treatment pesticides Dyna-Shield and Obvius (Table 6). After seed was treated and dried, it was inoculated with N Charge Inoculant for Pea, Vetch, and Lentil (Verdesian; 1.40 g/450 g seed) and planted within the same day as inoculating. For each seed treatment level, 15 reps were planted using a complete, randomized block design. Each rep consisted of a 10′, 2 row plot with 60 seeds planted per row. Mature seed was harvested for each plot. […] Seed yield was increased under all treatment levels tested, in a range of 0.04-0.31 mg/seed.

wheat [2] = experiment: Greenhouse comparison of wheat growth after 25 mM seed treatments of three dithiophosphates; format: in vivo; conditions: 25 mM seed treatment in diluted SPRET, 7% w/v, 21 days after planting
Procedure: as §1
Dithiophosphates have different chemical properties depending on the length of their chains. For instance, the length of the carbon chain influences solubility of the chemical and the rate of H2S release. Growth of wheat when treated with 25 mM seed treatments of three different DTPs: dibutyldithiophosphate (C4), dioctyldithiophosphate (C8), and dihexyldecycldithiophosphate (C16) was evaluated. Chemical amount per seed used in 25 mM seed treatment applications is described in Table 1. Seed was treated with a 25 mM solution in which the DTP was dissolved in a low concentration of SPRET non-ionic surfactant (Method 1 below). After seeds had dried, they were sown in moist potting soil at a rate of 4 seeds per pot and then not watered for 5 days. There were 5 reps for each treatment where each rep was the average from a single pot. Measurements were collected 21 days after planting. Tiller number was improved for each of the three DTP treatments but was most improved with the dibutyl dithiophosphate (C4) source (FIG. 4).
as §2, §3

chickpea = experiment: Greenhouse test of DBDTP seed treatment concentration for chickpea growth (pesticide slurry); format: in vivo
Procedure: as §4
This test took place in the greenhouse. Seed was treated according to Table 7. Prior to planting, pots were watered and seed was sown into moist potting soil. Pots were not watered for 5 days after planting to avoid flushing DBDTP out of the pot. […] An ideal range likely falls between 0.05-0.46 mg DBDTP/seed.

Avondale lentil = experiment: Greenhouse test of DBDTP seed treatment concentration for lentil growth; format: in vivo
Procedure: Testing was carried out in the greenhouse. Seed was treated according to Table 4. Prior to planting, pots were watered and seed was sown into moist potting soil. Pots were not watered for 5 days after planting to avoid flushing DBDTP out of the pot. […] Seed was treated with a 1.5% w/v solution of diluted SPRET surfactant with addition of DBDTP. Early plant growth was boosted between treatment concentrations 0.188 M-1.7 M. A likely beneficial treatment range lies between 0.03-0.26 mg/seed.

MT Dagmar spring wheat = experiment: Field trial of DBDTP treated wheat seed; format: in vivo
Procedure: Seed treatment levels consisted of 0, 12.5, 25, 50, and 100 mM DBDTP as in Table 2 and applied in a 7% w/v solution. All seed for each treatment (1000 g) was treated at one time and then once dried it was weighed out for planting in single rows. For each seed treatment level, 15 reps were planted using a complete, randomized block design. Each rep consisted of a 10′, 2 row plot. Plots were seeded at a rate of 10 g/row. Seed was tractor planted, and prior to planting, the field was worked, and N was delivered to achieve 390 Ibs urea/acre. […] The 12.5 mM and 25 mM seed treatments appear to be the best concentrations to boost grain yield as well, as these treatments yielded an average of 3.5-5% higher respectively than the 0 mM control (FIG. 7B). An ideal treatment range encompasses the 12.5 mM and 25 mM treatments and high end of ideal concentrations likely lies between the 25 mM and 50 mM treatments.

corn = conditions: addition to a commercial liquid starter fertilizer applied in furrow with the seeds; cited from earlier work
wheat [3] = experiment: Greenhouse test of DBDTP added to Cruiser Maxx Vibrance Cereals slurry for wheat; format: in vivo
Procedure: as §4
DBDTP was added to a slurry of Cruiser Maxx Vibrance Cereals according to Table 8. Prior to the addition of DBDTP, the pesticide was diluted 1:1 Cruiser:H2O. DBDTP was added to the diluted Cruiser, such that 2.1 mg DBDTP was added to 62.5 μL to treat 5 g of seed. This experiment was planted in the greenhouse, and at 14 days after planting, the 25 mM treated seed was taller and had more tillers than the 0 mM control (FIG. 13). This experiment was planted in two separate greenhouses-one where the lights had been recently replaced with new LED lights, and one where the old light system remained. […] The main difference observed between the lights was that growth was much enhanced under the new lights, boosting tillering overall. This means that tillering differences due to DBDTP treatment may be observed earlier under the new LED light system.

pea [4] = experiment: Pea germination test (cigar roll method) in aqueous DBDTP; format: in vivo; conditions: at all levels of DBDTP tested, 7 days
Procedure: Pea: For germination tests, 25 pea seeds were placed within each roll of germination paper using the cigar method described above. Measurements were recorded after 7 days with n=250.

pea [5] = experiment: Greenhouse trial, pea with aqueous delivery of DBDTP; format: in vivo; conditions: 4 weeks after planting
Procedure: as §1
Pea: Prior to planting, pots were watered and seed was sown into moist potting soil. Immediately after planting, each pot was watered with 200 mL water containing, 0, 5, 25, 50, 100, or 500 mg dissolved DBDTP. Pots were not watered for ~5 days after planting to avoid flushing DBDTP out of the pot.

wheat [6] = experiment: Greenhouse trial, wheat with slow-release fertilizer and aqueous delivery of DBDTP; format: in vivo; conditions: 5 and 25 mg/pot DBDTP in 200 mL water, in the presence of fertilizer (Osmocote), 4 weeks after planting
Procedure: as §1
Wheat: To test whether the germination test growth enhancement response observed in wheat would still occur in the presence of added nitrogen fertilizer, wheat was grown under varying levels of slow-release fertilizer (Osmocote) and then watered in with an aqueous solution of DBDTP (see Carter J M, et al., 2019, J. Agric Food Chem. 67:11883-11892). Osmocote was added to potting soil according to the label to achieve low or medium fertilization rates. Prior to planting, pots were watered and seed was sown into moist potting soil. Immediately after planting, each pot was watered with 200 mL water containing, 0, 5, 25, 50, 100, or 500 mg dissolved DBDTP. Pots were not watered for ~5 days after planting to avoid flushing DBDTP out of the pot.

Provider bush beans = experiment: Field trial of DBDTP treated green bean seed; format: in vivo
Procedure: Seed treatment levels consisted of 0, 175 mM, 350 mM, 700 mM, and 1.4 M DBDTP (Table 3) and seed was treated with a 5% w/v solution of diluted SPRET surfactant and DBDTP. For each seed treatment level, 15 reps were planted using a complete, randomized block design. Each rep consisted of a 3′, 2 row plot with 18 seeds planted per row. Entire plants were harvested at maturity and biomass was averaged for each row. Each row was considered a single rep. For each plot of treated seed, biomass was increased compared to the 0 mM control (FIG. 8A). […] Depending on whether the goal was to increase seed weight, or plant biomass, an ideal treatment range encompasses the 175 mM, 350 mM, and 700 mM treatments. These concentrations correspond to a range of 0.07-0.28 mg DBDTP/seed.

wheat [7] = experiment: Wheat germination test (cigar roll method) in aqueous DBDTP; format: in vivo; conditions: wheat seeds in germination paper rolls, 7 days, compared to the 0 mg/L control; 41.2 μM-1.03 mM
Procedure: Wheat: For germination tests, 50 wheat seeds were placed within a roll of germination paper using the cigar roll method (Bai C, 2013, J Exp Bot, 64:1745-1753) with n=50. Rolls were placed upright in tubs containing varying concentrations of DBDTP in water, such that the end of the roll was submerged 3″ into the solution. Lids were placed on tubs, then shoot and root length measurements were recorded after 7 days.

Cherry Belle F1 radish = experiment: Field trial of DBDTP treated radish seed; format: in vivo
Procedure: Seed treatment levels consisted of 0, 12.5, 25, 50, and 100 mM DBDTP (Table 5) and seed was treated with a 7% w/v solution of diluted SPRET surfactant and DBDTP. For each seed treatment level, 15 reps were planted using a complete, randomized block design. Each rep consisted of a single 3′ row plot. Plots were seeded at a rate of 36 seeds/row and thinned to 4-6″ apart. Root fresh weight was averaged for each row and each row was considered a single rep. Root biomass was increased compared to the control at the 12.5 mM treatment level (FIG. 10). This corresponded to 0.001 mg/seed. Radish root growth likely be enhanced with an application rate in a range of 0.001-0.005 mg DBDTP/seed.

[8] = seed treatments of up to 50 mM DBDTP, 35 days after planting
[9] = 25 mM in Cruiser Maxx Vibrance Cereals slurry, 14 days after planting, vs 0 mM control

## CCCCOP(=S)(S)OCCCC [DBDTP, dibutyl dithiophosphate]
Wheat [1]; seed treatment doses higher than 50 mM, 7% w/v in SPRET
  germination: reduce germination
Wheat [1]; [8]
  plant height: enhanced
  tiller number: enhanced
MT 457 green field pea; 413 mM treated seed
  seed yield, best treatment: highest yielding
MT 457 green field pea; each plot of treated seed (52, 103, 207, 413 mM), with Dyna-Shield and Obvius, vs control
  seed yield: increased
MT 457 green field pea; seed treatment, pea
  Likely ideal DBDTP range, pea (range in which seed yield was increased): 0.04-0.31 mg/seed
Wheat [2]
  tiller number: most improved
chickpea; 100 mM treatment level in pesticide slurry, 14 days after planting
  growth response of chickpea: positive DBDTP growth response
chickpea; seed treatment, chickpea
  Likely ideal DBDTP range, chickpea: 0.05-0.46 mg/seed
Avondale lentil; around the 375 mM treatment level, 14 days after planting, 1.5% w/v SPRET
  growth response of lentil: positive DBDTP growth response
Avondale lentil; seed treatment, lentil
  Likely ideal (beneficial) DBDTP range, lentil: 0.03-0.26 mg/seed
MT Dagmar spring wheat; 12.5 mM seed treatment
  grain yield, average increase over the 0 mM control: 3.5%
MT Dagmar spring wheat; 25 mM seed treatment
  grain yield, average increase over the 0 mM control: 5%
MT Dagmar spring wheat; 100 mM DBDTP seed treatment
  plant growth and yield: significantly diminished
MT Dagmar spring wheat; 12.5 and 25 mM seed treatment, 4 weeks after planting, vs 0 mM control
  tiller number: significantly higher
corn
  corn yield: increases corn yield
Wheat [3]; [9]
  plant height: taller
  tiller number: more tillers
Wheat [3]; 25 mM treated seed
  performance against control in both greenhouses (new LED lights, old light system): outperformed the control
Pea [4]
  growth response of pea seedlings: positive growth response
Pea [5]; 100 and 500 mg/pot DBDTP
  growth response (pea vine length), best doses: greatest boost to growth
Pea [5]; each DBDTP treatment (5, 25, 50, 100, 500 mg/pot in 200 mL water)
  growth response (pea vine length): positive response
Wheat [6]
  tiller number: boost to tiller number
Provider bush beans; each plot of treated seed (175 mM, 350 mM, 700 mM, 1.4 M), harvested at maturity, vs 0 mM control
  plant biomass: increased
Provider bush beans; lowest level tested (175 mM), vs control
  seed pod weight: increased
Provider bush beans; seed treatment, green bean
  Likely ideal DBDTP range, green bean: 0.07-0.28 mg/seed
Wheat [7]
  DBDTP concentration range with positive growth response (shoot and root length): 10 to 250 mg/L
Cherry Belle F1 radish; 12.5 mM treatment level (0.001 mg/seed), vs control
  root biomass (root fresh weight): increased
Cherry Belle F1 radish; seed treatment, radish
  Likely ideal DBDTP range, radish: 0.001-0.005 mg/seed

## CCCCCCCCOP(=S)(S)OCCCCCCCC [dioctyldithiophosphate (C8), dioctyldithiophosphate]
Wheat [2]
  tiller number: improved

## dihexyldecycldithiophosphate [dihexyldecycldithiophosphate (C16)]
Wheat [2]
  tiller number: improved
